Measured values as given in ChEMBL document CHEMBL5726598, “Compounds, compositions and methods” (2017).

These compounds were tested against T1, Receptor-interacting serine/threonine-protein kinase 1 (Homo sapiens, UniProt Q13546) (assay: For negative control the enzyme addition was replaced by assay buffer only.).
T1 sequence (Q13546 whole entry): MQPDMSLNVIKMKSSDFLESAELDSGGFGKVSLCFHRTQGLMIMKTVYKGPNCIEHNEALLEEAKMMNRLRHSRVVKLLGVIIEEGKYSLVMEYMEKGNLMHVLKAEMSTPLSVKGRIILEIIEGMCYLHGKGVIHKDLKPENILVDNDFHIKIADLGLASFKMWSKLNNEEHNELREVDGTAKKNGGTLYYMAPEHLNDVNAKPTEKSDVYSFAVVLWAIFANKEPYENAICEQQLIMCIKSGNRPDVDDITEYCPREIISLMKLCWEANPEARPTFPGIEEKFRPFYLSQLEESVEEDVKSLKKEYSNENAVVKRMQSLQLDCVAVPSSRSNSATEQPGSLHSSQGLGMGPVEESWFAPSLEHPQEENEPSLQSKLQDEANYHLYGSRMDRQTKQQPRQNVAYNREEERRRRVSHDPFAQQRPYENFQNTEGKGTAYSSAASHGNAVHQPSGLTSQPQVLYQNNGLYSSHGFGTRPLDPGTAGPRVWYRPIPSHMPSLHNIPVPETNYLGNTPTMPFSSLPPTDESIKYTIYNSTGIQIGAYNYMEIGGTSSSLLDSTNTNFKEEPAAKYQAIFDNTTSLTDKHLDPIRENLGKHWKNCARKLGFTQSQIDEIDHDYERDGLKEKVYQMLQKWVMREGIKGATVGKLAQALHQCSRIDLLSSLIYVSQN
For `CN1C(=O)[C@H](NC(=O)c2cc(Oc3ccc(F)cc3F)ccn2)CCc2cccnc21`, the IC50 was greater than 3000 nM. `CN1C(=O)[C@@H](NC(=O)c2cc(C3(c4ccccc4)CC3)on2)COc2cnccc21` gave an IC50 of 0.1 to 1000 nM. With `CN1C(=O)[C@@H](NC(=O)c2nn(Cc3ccccc3C#N)cc2F)COc2cccnc21` the IC50 was 0.1 to 1000 nM.
